Where a name gives a salt, the structure may show the parent alone.
Assays:
NMDA receptors = test: NMDA receptor antagonist functional assay, intracellular calcium; format: cell-based; conditions: for times more potent than amantadine as NMDA receptor antagonist: vs amantadine
[1] = system: bloodstream form T. brucei (strain 427); test: Trypanocidal activity against cultured bloodstream form T. brucei; conditions: concentrations up to 5 μg mL−1

Compound	activity against cultured bloodstream form T. brucei [1]	also measured
NCC12CC3CC(CC1C3)C2 [Compound 14, [(Tricyclo[3.3.1.0^3,7]non-3-yl)methyl]amine hydrochloride]		NMDA receptor antagonist activity (in words) (NMDA receptors; cerebellar granule neurons, highest concentration tested): no NMDA receptor antagonist activity
CN(Cc1ccccc1)CC12CC3(C)CC1CC3(C)C2 [Compound 32, N-Benzyl-N-methyl[(3,7-dimethyltricyclo[3.3.0.0^3,7]oct-1-yl)methyl]amine hydrochloride]	no significant activity	
CC12CC3CC1(C)CC3(N)C2 [Compound 21, 3,7-Dimethyl(tricyclo[3.3.0.0^3,7]oct-1-yl)amine·HCl]	no significant activity	times more potent as NMDA receptor antagonist than 3-noradamantylamine, 7 (NMDA receptors; vs compound 7): 4 times
CC(N)C12CC3(C)CC1CC3(C)C2 (stereo not drawn) [Compound 25, 1-(3,7-Dimethyltricyclo[3.3.0.0^3,7]oct-1-yl)ethylamine hydrochloride]		times more potent than amantadine as NMDA receptor antagonist (NMDA receptors; NMDA challenge): 2.5 times
CNC12CC3(C)CC1CC3(C)C2 [Compound 28, N-3,7-Trimethyl(tricyclo[3.3.0.0^3,7]oct-1-yl)amine hydrochloride]	no significant activity	
CC12CC3CC1(C)CC3(CNC(=N)N)C2 [Compound 35, N-[(3,7-dimethyltricyclo[3.3.0.0^3,7]oct-1-yl)methyl]guanidine hydrochloride]	without antiviral and trypanocidal activities	times more potent than amantadine as NMDA receptor antagonist (NMDA receptors; NMDA challenge): 10 times; times more potent than corresponding noradamantyl analog, 18 (NMDA receptors; vs compound 18): 3.5 times; times less potent than memantine as NMDA receptor antagonist (NMDA receptors; vs memantine, NMDA challenge): 5 times
CN(Cc1ccccc1)C12CC3(C)CC1CC3(C)C2 [Compound 23, N-Benzyl-N,3,7-trimethyl(tricyclo[3.3.0.0^3,7]oct-1-yl)amine hydrochloride]	no significant activity	
CC12CC3CC1(C)CC3(N(Cc1ccccc1)Cc1ccccc1)C2 [Compound 27, N,N-Dibenzyl-3,7-dimethyl(tricyclo[3.3.0.0^3,7]oct-1-yl)amine hydrochloride]	no significant activity	
CC12CC3CC1(C)CC3(NCc1ccccc1)C2 [Compound 22a, N-Benzyl-3,7-dimethyl(tricyclo[3.3.0.0^3,7]oct-1-yl)amine hydrochloride]	no significant activity	
CC12CC3CC1(C)CC3(CN1CCCCC1)C2 [Compound 34, N-[(3,7-Dimethyltricyclo[3.3.0.0^3,7]oct-1-yl)methyl]piperidine hydrochloride]	no significant activity	
CNCC12CC3(C)CC1CC3(C)C2 [Compound 36, N-Methyl[(3,7-dimethyltricyclo[3.3.0.0^3,7]oct-1-yl)methyl]amine hydrochloride]	no significant activity	
